In patent US11000491B2, “Amino-aryl-benzamide compounds and methods of use thereof” (HEPANOVA, INC., priority 2017, dated 2021) one finds EC50 data, which are given here for 22 compounds.

Read-outs that look alike come from different tables or passages of the source.

Type in all cases: cell-based
One assay deals with Huh7 cells. In words: LD content in Huh7 cells pre-treated with insulin, Oil-Red-O staining, absorbance OD 540 nm. The following applies: procedure of Example 3, read-out: LD content inhibition (EC50). An outline of the steps: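 Huh7 cells, mock-treated or pre-treated with 1 mM insulin, were then exposed to compound at the indicated amounts. Lipid droplets stained with Oil Red O and quantified by absorbance at OD 540 nm.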

A further assay relates to SREBP-1. Kind of assay: SREBP-1 expression in cultured primary human hepatocytes. The following applies: procedure of Example 6, read-out: SREBP-1 mRNA inhibition (EC50). An outline of the steps: (§1)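 Primary human hepatocytes in culture exposed to a range of HPN-01 derivative concentrations; SREBP-1 and SREBP-2 mRNA expression then measured to assess inhibition.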
In the next assay the test system is SREBP-2. In words: SREBP-2 expression in cultured primary human hepatocytes. The following applies: procedure of Example 6, read-out: SREBP-2 mRNA inhibition (EC50). An outline of the steps:
as §1

The mark [1] stands for this setting: Homo sapiens, Huh-7, Huh7 cells.

Consider `NC(=O)c1cc(/C=C/c2cccc(F)c2)cc(-c2ccc(S(N)(=O)=O)cc2)c1N` [HPN-01104, (E)-2-amino-5-(3-fluorostyryl)-4′-sulfamoyl-[1,1′-biphenyl]-3-carboxamide], for which the EC50 was 670 nM with Huh7 cells (setting [1]); 2080 nM in the assay with SREBP-1 (Homo sapiens, Hepatocyte); 3260 nM with SREBP-2 (Homo sapiens, Hepatocyte).

Regarding `NC(=O)c1cc(/C=C/c2ccc(Br)cc2)cc(-c2ccc(S(N)(=O)=O)cc2)c1N` [HPN-01109, (E)-2-amino-5-(4-bromostyryl)-4′-sulfamoyl-[1,1′-biphenyl]-3-carboxamide], the EC50 with Huh7 cells (setting [1]) is 1370 nM; in the assay on SREBP-1 (Homo sapiens, Hepatocyte), 2710 nM; in the assay on SREBP-2 (Homo sapiens, Hepatocyte), 4460 nM.

For the compound `NC(=O)Nc1ccc(-c2cc(-c3ccc(Cl)cc3)cc(C(N)=O)c2NC(=O)CO)cc1` [HPN-01506, 4-chloro-4′-(2-hydroxyacetamido)-4″-ureido-[1,1′:3′,1″-terphenyl]-5′-carboxamide], the EC50 with Huh7 cells (setting [1]) stood at 6480 nM; in the assay with SREBP-1 (Homo sapiens, Hepatocyte), 7310 nM; with SREBP-2 (Homo sapiens, Hepatocyte) it was 17100 nM.

With `NC(=O)c1cc(-c2ccc(Br)cc2)cc(Oc2cccc(S(N)(=O)=O)c2)c1N` [HPN-01415, 4-amino-4′-bromo-5-(3-sulfamoylphenoxy)-[1, 1′-biphenyl]-3-carboxamide], the EC50 is 660 nM in the assay on Huh7 cells (setting [1]); 2350 nM in the assay on SREBP-1 (Homo sapiens, Hepatocyte); 6450 nM in the assay with SREBP-2 (Homo sapiens, Hepatocyte).

For `Nc1c(C(=O)Nc2ccccc2)cc(-c2ccc(Cl)cc2)cc1-c1ccc(S(N)(=O)=O)cc1` [HPN-01611, 4′-amino-4-chloro-N-phenyl-4″-sulfamoyl-[1,1′:3′,1″-terphenyl]-5′-carboxamide], the EC50 was 790 nM in the assay with Huh7 cells (setting [1]); 1370 nM in the assay with SREBP-1 (Homo sapiens, Hepatocyte); 2240 nM in the assay on SREBP-2 (Homo sapiens, Hepatocyte).

With `CC(=O)Oc1ccc(-c2cc(C(N)=O)c(N)c(-c3ccc(S(N)(=O)=O)cc3)c2)cc1` [HPN-01304, 4′-amino-5′-carbamoyl-4″-sulfamoyl-[1,1′:3′,1″-terphenyl]-4-yl acetate], the EC50 in the assay with Huh7 cells (setting [1]) is 830 nM; in the assay on SREBP-1 (Homo sapiens, Hepatocyte) it was 1540 nM; in the assay on SREBP-2 (Homo sapiens, Hepatocyte), 2770 nM.

Regarding `NC(=O)c1cc(/C=C/c2ccccc2Cl)cc(-c2ccc(S(N)(=O)=O)cc2)c1N` [HPN-01108, (E)-2-amino-5-(2-chlorostyryl)-4′-sulfamoyl-[1,1′-biphenyl]-3-carboxamide], the EC50 in the assay on Huh7 cells (setting [1]) was found to be 550 nM; with SREBP-1 (Homo sapiens, Hepatocyte), 2590 nM; in the assay with SREBP-2 (Homo sapiens, Hepatocyte), 4670 nM.

`NC(=O)c1cc(Sc2ccc(Cl)cc2)cc(-c2ccc(S(N)(=O)=O)cc2)c1N` [HPN-01314, 2-amino-5-((4-chlorophenyl)thio)-4′-sulfamoyl-[1,1′-biphenyl]-3-carboxamide]: the EC50 is 1180 nM in the assay on Huh7 cells (setting [1]); 4570 nM in the assay on SREBP-1 (Homo sapiens, Hepatocyte); 7710 nM in the assay on SREBP-2 (Homo sapiens, Hepatocyte).

Turning to `CC(=O)Nc1c(C(N)=O)cc(-c2ccc(Cl)cc2)cc1-c1ccc(S(N)(=O)=O)cc1` [HPN-01501, 4′-acetamido-4-chloro-4″-sulfamoyl-[1,1′:3′,1″-terphenyl]-5′-carboxamide], the EC50 in the assay with Huh7 cells (setting [1]) was determined as 1670 nM; with SREBP-1 (Homo sapiens, Hepatocyte), 5040 nM; with SREBP-2 (Homo sapiens, Hepatocyte) it was 8550 nM.

In the case of `NC(=O)c1cc(-c2ccc(Cl)cc2)cc(-c2ccc(S(N)(=O)=O)cc2)c1NCc1cccc(Cl)c1` [HPN-01532, 4-chloro-4′-((3-chlorobenzyl)amino)-4″-sulfamoyl-[1,1′:3′,1″-terphenyl]-5′-carboxamide], the EC50 with Huh7 cells (setting [1]) came to 1150 nM; in the assay on SREBP-1 (Homo sapiens, Hepatocyte) it was 2690 nM; with SREBP-2 (Homo sapiens, Hepatocyte), 8600 nM.

For `NC(=O)c1cc(-c2ccc(Cl)cc2)cc(Oc2cccc(S(=O)(=O)NCCO)c2)c1N` [HPN-01422, 4-amino-4′-chloro-5-(3-(N-(2-hydroxyethyl)sulfamoyl)phenoxy)-[1, 1′-biphenyl]-3-carboxamide], the EC50 in the assay with Huh7 cells (setting [1]) was found to be 1440 nM; with SREBP-1 (Homo sapiens, Hepatocyte), 1520 nM; with SREBP-2 (Homo sapiens, Hepatocyte), 3930 nM.

For the compound `NC(=O)c1cc(-c2ccc(Cl)cc2)cc(Sc2ccc(S(N)(=O)=O)cc2)c1N` [HPN-01403], the EC50 in the assay on Huh7 cells (Huh7 cells) was 360 nM; in the assay on SREBP-1 it was 1960 nM; with SREBP-2, 3090 nM.

`NC(=O)c1cc(-c2ccc(Cl)cc2)cc(Oc2cccc(-c3nn[nH]n3)c2)c1N` [HPN-01410, 5-(3-(2H-tetrazol-5-yl)phenoxy)-4-amino-4′-chloro-[1,1′-biphenyl]-3-carboxamide]: the EC50 in the assay on Huh7 cells (setting [1]) was determined as 580 nM; with SREBP-1 (Homo sapiens, Hepatocyte), 2090 nM; in the assay on SREBP-2 (Homo sapiens, Hepatocyte), 4080 nM.

As for `NC(=O)c1cc(C#CCOC(=O)c2ccccc2F)cc(-c2ccc(S(N)(=O)=O)cc2)c1N` [HPN-01213, 3-(6-amino-5-carbamoyl-4′-sulfamoyl-[1,1′-biphenyl]-3-yl)prop-2-yn-1-yl 2-fluorobenzoate], the EC50 was found to be 1290 nM in the assay with Huh7 cells (setting [1]); 4550 nM with SREBP-1 (Homo sapiens, Hepatocyte); 4880 nM with SREBP-2 (Homo sapiens, Hepatocyte).

In the case of `Cc1ccc(NC(=O)/C=C/c2cc(C(N)=O)c(N)c(-c3ccc(S(N)(=O)=O)cc3)c2)cc1` [HPN-01126, (E)-2-amino-5-(3-oxo-3-(p-tolylamino)prop-1-en-1-yl)-4′-sulfamoyl-[1,1′-biphenyl]-3-carboxamide], the EC50 in the assay with Huh7 cells (setting [1]) came out at 830 nM; in the assay with SREBP-1 (Homo sapiens, Hepatocyte), 2430 nM; with SREBP-2 (Homo sapiens, Hepatocyte) it was 4540 nM.

Take `CCOC(=O)/C=C/c1cc(C(N)=O)c(N)c(-c2ccc(S(N)(=O)=O)cc2)c1` [HPN-01115, ethyl (E)-3-(6-amino-5-carbamoyl-4′-sulfamoyl-[1,1′-biphenyl]-3-yl)acrylate]: the EC50 with Huh7 cells (setting [1]) turned out to be 2350 nM; with SREBP-1 (Homo sapiens, Hepatocyte), 6420 nM; in the assay on SREBP-2 (Homo sapiens, Hepatocyte), 5990 nM.

In the case of “(E)-2-amino-5-(3-((4-fluorophenethyl)amino)-3-oxoprop-1-en-1-yl)-4′-sulfamoyl-[1,1′-biphenyl]-3-carboxamide [HPN-01132]”, the EC50 turned out to be 70 nM in the assay with Huh7 cells (Huh7 cells), 360 nM in the assay on SREBP-1 and 1550 nM with SREBP-2.

`COC(=O)c1ccc(-c2cc(C(N)=O)c(N)c(-c3ccc(S(N)(=O)=O)cc3)c2)cc1` [HPN-01301, methyl 4′-amino-5′-carbamoyl-4″-sulfamoyl-[1,1′:3′,1″-terphenyl]-4-carboxylate]: the EC50 in the assay with Huh7 cells (setting [1]) is 1190 nM; in the assay on SREBP-1 (Homo sapiens, Hepatocyte), 3440 nM; with SREBP-2 (Homo sapiens, Hepatocyte), 5350 nM.

`CCCNS(=O)(=O)c1cccc(Oc2cc(-c3ccc(Cl)cc3)cc(C(N)=O)c2N)c1` [HPN-01411, 4-amino-4′-chloro-5-(3-(N-propylsulfamoyl)phenoxy)-[1,1′-biphenyl]-3-carboxamide]: the EC50 was 940 nM in the assay with Huh7 cells (setting [1]); 1590 nM in the assay on SREBP-1 (Homo sapiens, Hepatocyte); 2840 nM in the assay with SREBP-2 (Homo sapiens, Hepatocyte).

As to `COC(=O)c1cccc(Oc2cc(C(N)=O)c(N)c(-c3ccc(S(N)(=O)=O)cc3)c2)c1` [HPN-01320, methyl 3-((6-amino-5-carbamoyl-4′-sulfamoyl-[1,1′-biphenyl]-3-yl)oxy)benzoate], the EC50 was determined as 690 nM with Huh7 cells (setting [1]); 1100 nM with SREBP-1 (Homo sapiens, Hepatocyte); 2160 nM in the assay on SREBP-2 (Homo sapiens, Hepatocyte).

With `CCCC(=O)Nc1cccc(/C=C/c2cc(C(N)=O)c(N)c(-c3ccc(S(N)(=O)=O)cc3)c2)c1` [HPN-01112, (E)-2-amino-5-(3-butyramidostyryl)-4′-sulfamoyl-[1,1′-biphenyl]-3-carboxamide], the EC50 was 650 nM in the assay with Huh7 cells (setting [1]); 2030 nM in the assay with SREBP-1 (Homo sapiens, Hepatocyte); 1360 nM with SREBP-2 (Homo sapiens, Hepatocyte).

With `NC(=O)c1cc(-c2ccc(Cl)cc2)cc(-c2ccc(S(N)(=O)=O)cc2)c1NC(=O)CO` [HPN-01502, 4-chloro-4′-(2-hydroxyacetamido)-4″-sulfamoyl-[1,1′:3′,1″-terphenyl]-5′-carboxamide], the EC50 came out at 790 nM in the assay on Huh7 cells (setting [1]); 1650 nM in the assay on SREBP-1 (Homo sapiens, Hepatocyte); 2300 nM in the assay with SREBP-2 (Homo sapiens, Hepatocyte).
